Experimental data: patent US6566120B2 (Massachusetts Institute of Technology, priority 1995, dated 2003)
Like-named read-outs stand apart in the source and are kept apart here.

Key:
Actinomadura hydroxylase [1] = assay: Effect of various factors on conversion of compactin to pravastatin in cell free extracts of Actinomadura; type: biochemical, Actinomadura ATCC 55678; conditions: for CP: compactin remaining
Actinomadura hydroxylase [2] = assay: Conversion of compactin to pravastatin by cell free extracts of Actinomadura: NADH versus NADPH as H+ donor; type: biochemical, Actinomadura ATCC 55678; conditions: for PV: 160 μl cell free extract, 0.26 mM H+ donor, 0.23 mM compactin, 30° C.
Experimental: The HPLC conditions used were a 3 μm Lichrospher 100 RP-18 column (obtained from EM Separations Technology, Gibbstown, N.J.); Mobile Phase A: 2.5 g NaH2PO4 in 800 ml Milli-Q water, add 200 ml acetonitrile and 110 ml methanol, adjust pH to 2.5 with 85% H3PO4; Mobile Phase B: mixture of 200 ml water, 800 ml acetonitrile, 110 ml methanol and 1 ml 85% H3PO4; a 10 μl injection volume; a 1 ml/min. flow rate; and detection at UV 237 nm. The gradient table was: A cell free extract of Actinomadura was obtained by growing a 150 ml culture of Actinomadura ATCC 55678 for 2 days in YM medium as described in Example 1. The cells were harvested by centrifugation at 15,000 rpm for 30 min. […] Cells were harvested by centrifugation, washed twice with cold water and once with buffer A ([…] Tris-HCl buffer, pH 7.4, supplemented with 20% glycerol and 2 mM DTT). The cells were resuspended in 5 ml buffer A and stored at −80° C. The cell suspension was later thawed and disrupted in a French Press. The homogenate was centrifugated at 30,000 rpm for 60 min. The supernatant was stored at −80° C. as cell free extract. […] A control of buffer A without cell free extract was included. The amount of pravastatin was measured by HPLC as described in Example 1.

blood cholesterol level = assay: Treating high blood cholesterol levels; type: in vivo; conditions: human patient; 20 mg orally, pill, twice a day, 3 months
Experimental: This example illustrates a method for lowering the cholesterol level in a human with pravastatin derived from an Actinomadura hydroxylase that converts compactin to pravastatin. The patient is given 20 mg of this pravastatin orally, in the form of a pill, twice a day. Administration is carried out for a period of 3 months.

[3] = molecular target: T1, 3-hydroxy-3-methylglutaryl (HMG)-CoA reductase (Homo sapiens, UniProt P04035); conditions: have been reported; cited from earlier work
T1 sequence (P04035 1-888): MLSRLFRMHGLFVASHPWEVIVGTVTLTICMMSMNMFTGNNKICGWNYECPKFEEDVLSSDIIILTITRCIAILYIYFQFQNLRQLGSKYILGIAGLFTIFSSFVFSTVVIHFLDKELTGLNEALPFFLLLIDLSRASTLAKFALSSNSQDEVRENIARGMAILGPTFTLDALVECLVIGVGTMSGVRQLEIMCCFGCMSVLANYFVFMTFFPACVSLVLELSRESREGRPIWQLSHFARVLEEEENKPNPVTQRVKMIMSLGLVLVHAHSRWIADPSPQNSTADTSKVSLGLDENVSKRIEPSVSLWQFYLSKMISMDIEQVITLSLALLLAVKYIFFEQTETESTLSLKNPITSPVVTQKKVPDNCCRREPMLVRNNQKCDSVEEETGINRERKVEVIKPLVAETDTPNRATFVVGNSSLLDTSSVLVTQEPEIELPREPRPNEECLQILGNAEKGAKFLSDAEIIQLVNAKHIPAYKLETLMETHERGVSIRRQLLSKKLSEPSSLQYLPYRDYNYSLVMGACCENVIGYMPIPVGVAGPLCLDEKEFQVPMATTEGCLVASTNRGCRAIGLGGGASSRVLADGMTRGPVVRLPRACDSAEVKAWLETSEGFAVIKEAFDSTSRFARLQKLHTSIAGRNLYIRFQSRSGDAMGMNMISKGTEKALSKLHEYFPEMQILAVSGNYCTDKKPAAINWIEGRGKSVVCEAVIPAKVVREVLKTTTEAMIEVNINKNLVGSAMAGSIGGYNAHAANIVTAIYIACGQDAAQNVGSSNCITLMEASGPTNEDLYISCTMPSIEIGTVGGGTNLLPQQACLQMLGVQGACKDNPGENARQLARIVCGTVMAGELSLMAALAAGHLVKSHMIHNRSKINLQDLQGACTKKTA

fungi = conditions: Serizawa et al., J. Antibiotics 36:887-891 (1983); cited from earlier work
strain 2966 = assay: Antibiotic sensitivity of strain 2966 (taxonomic description); type: cell-based, Actinomadura
Text: Description of strain 2966: Cell wall analysis: Whole cell hydrolysates contain meso-diaminopimelic acid (DAP) and madurose. Morphology: Strain 2966 produces an extensively branched, non-fragmenting and dense substrate mycelium. The aerial mycelium is very well developed on yeast malt extract agar, oatmeal agar, N-Z Amine with soluble starch and glucose agar and absent on ISP-4, ISP-5 and ISP-7 media. Spore chains noticeably exceed the diameter of the hyphae which is characteristic for Actinomadura strains and distinguish them from Streptomyces. The presence of meso-DAP is another distinguishing feature. Spores of strain 2966 have a round shape unlike glycomyces species. No special morphological structures were observed either on the substrate mycelium or aerial mycelium. The color of the aerial mycelium is white and yellow-brown for substrate mycelium. No soluble or melanin pigments are formed. Mycelium is not sensitive to pH changes. Carbon source utilization is very poor for glucose, arabinose, D-fructose, D-mannitol, raffinose, rhamnose, sucrose, xylose, galactose and there is only a trace of growth with i-inositol, salicin or on control agar. […] Of the meso-DAP-containing actinomycetes, only Actinomadura species have non-fragmenting mycelium and display the same type of aerial mycelium formation and sporulation as strain 2966.

[4] = Actinomadura cell free extracts, alone or in combination
[5] = Table 10, CFE Uninduced, combination MgCl2 2.4 mM, ATP 1.9 mM, ascb 12 mM, ATP alone 3.8 mM, ascb alone 23 mM
[6] = Table 9, 60 min, 0.72 mM NADPH, 0.2 mM compactin, 2.4 mM MgCl2, 0.09 mM FeSO4, 0.1 mM FeCl3, 1.9 mM ATP and 12 mM ascorbic acid
[7] = Table 9, 60 min, 0.72 mM NADPH, 0.2 mM compactin, same factor concentrations

With `Nc1ncnc2c1ncn2[C@@H]1O[C@H](COP(=O)(O)OP(=O)(O)OP(=O)(O)O)[C@@H](O)[C@H]1O` [ATP] the “stimulation of the enzymatic activity of the agent (conversion of compactin to pravastatin)” value (from here on “stimulation”) (Actinomadura hydroxylase [1]; [4]) was “stimulate conversion of compactin to pravastatin”, the “PV (μg/min/g)” value (Actinomadura hydroxylase [1]; [5]) was 17 µg/min/g and the “PV (μg/ml)” value (Actinomadura hydroxylase [1]; [5]) was 7.5 µg/mL.

In the case of `[Cl-].[Cl-].[Co+2]` [CoCl2], the “stimulation” value (Actinomadura hydroxylase [1]) is reported as “do not stimulate enzymatic activity”.

For `O=S(=O)([O-])[O-].[Cu+2]` [CuSo4], the “stimulation” value (Actinomadura hydroxylase [1]; [4]) was “do not stimulate enzymatic activity”.

For `Cc1cc2nc3c(=O)[nH]c(=O)nc-3n(C[C@H](O)[C@H](O)[C@H](O)COP(=O)(O)OP(=O)(O)OC[C@H]3O[C@@H](n4cnc5c(N)ncnc54)[C@H](O)[C@@H]3O)c2cc1C` [FAD], the “stimulation” value (Actinomadura hydroxylase [1]) was “do not stimulate enzymatic activity”.

For `Cc1cc2nc3c(=O)[nH]c(=O)nc-3n(C[C@H](O)[C@H](O)[C@H](O)COP(=O)(O)O)c2cc1C` [FMN], the “stimulation” value (Actinomadura hydroxylase [1]) was “do not stimulate enzymatic activity”.

For `[Cl][Fe]([Cl])[Cl]` [FeCl3], the “PV (μg/ml)” value (Actinomadura hydroxylase [1]; [6]) was 3.3 µg/mL, the “PV (μg/min/g)” value (Actinomadura hydroxylase [1]; [7]) was 6.6 µg/min/g and the “CP” value (Actinomadura hydroxylase [1]; [7]) was 57.9 µg/mL.

In the case of `O=S(=O)([O-])[O-].[Fe+2]` [FeSO4], the “PV (μg/ml)” value (Actinomadura hydroxylase [1]; [6]) is reported as 2.3 µg/mL, the “PV (μg/min/g)” value (Actinomadura hydroxylase [1]; [7]) is reported as 6.4 µg/min/g and the “CP” value (Actinomadura hydroxylase [1]; [7]) is reported as 64.3 µg/mL.

In the case of `[Cl-].[Cl-].[Mg+2]` [MgCl2], the “stimulation” value (Actinomadura hydroxylase [1]; [4]) is reported as “stimulate conversion of compactin to pravastatin”, the “PV (μg/ml)” value (Actinomadura hydroxylase [1]; [6]) is reported as 4.4 µg/mL and the “PV (μg/min/g)” value (Actinomadura hydroxylase [1]; [7]) is reported as 8.7 µg/min/g. For the same molecule, the “CP” value (Actinomadura hydroxylase [1]; [7]) was 60.2 µg/mL.

In the case of `NC(=O)C1=CN([C@@H]2O[C@H](COP(=O)(O)OP(=O)(O)OC[C@H]3O[C@@H](n4cnc5c(N)ncnc54)[C@H](O)[C@@H]3O)[C@@H](O)[C@H]2O)C=CC1` [NADH], the “PV” value (Actinomadura hydroxylase [2]; 5 hours) is reported as 2.8 µg/mL and the “PV” value (Actinomadura hydroxylase [2]; 21 hours) is reported as 2.8 µg/mL.

For `NC(=O)C1=CN([C@@H]2O[C@H](COP(=O)(O)OP(=O)(O)OC[C@H]3O[C@@H](n4cnc5c(N)ncnc54)[C@H](OP(=O)(O)O)[C@@H]3O)[C@@H](O)[C@H]2O)C=CC1` [NADPH], the “PV” value (Actinomadura hydroxylase [2]; 6 hours) was 12.8 µg/mL, the “PV” value (Actinomadura hydroxylase [2]; 21 hours) was 11.9 µg/mL and the “enzymatic conversion of compactin to pravastatin, comparison of H+ donors” value (Actinomadura hydroxylase [2]; cell free extracts) was “better with NADPH as a H^+ donor than with NADH”.

For `[Cl][Ni][Cl]` [NiCl2], the “stimulation” value (Actinomadura hydroxylase [1]; [4]) was “do not stimulate enzymatic activity”.

For `O=C1O[C@H]([C@@H](O)CO)C(O)=C1O` [ascb, ascorbic acid], the “stimulation” value (Actinomadura hydroxylase [1]; [4]) was “stimulate conversion of compactin to pravastatin”, the “PV (μg/min/g)” value (Actinomadura hydroxylase [1]; [5]) was 18 µg/min/g and the “PV (μg/ml)” value (Actinomadura hydroxylase [1]; [5]) was 8.3 µg/mL.

For `CC[C@H](C)C(=O)O[C@H]1C[C@H](O)C=C2C=C[C@H](C)[C@H](CC[C@@H](O)C[C@@H](O)CC(=O)O)[C@H]21` [pravastatin], the blood cholesterol level (blood cholesterol level) is listed as “reduction of the patient's blood cholesterol level” and the “inhibition of HMG-CoA reductase” value [3] is listed as “competitive inhibitors”.

For `O=C(O)CCC(=O)C(=O)O` [∝-ketoglutarate], the “stimulation” value (Actinomadura hydroxylase [1]; [4]) was “do not stimulate enzymatic activity”.

For compactin, the activity against fungi (fungi) is listed as “anti-fungal activity”.

For neomycin, the “sensitivity of strain 2966 to antibiotic” value (strain 2966) was “inhibited”.

With penicillin the “sensitivity of strain 2966 to antibiotic” value (strain 2966) was “resistance”.
